# Experimental data: patent publication US20060029649A1, “Stabilized antimicrobial agents” (priority 2004, published 2006)
# Assay: Thermal stability of IPBC in lubricant mixtures, oven at 180° C., amount determined by HPLC
# Format: physicochemical
# Description: Except for example 2 wherein 100% IPBC was used, the antimicrobial agent was admixed with the lubricating agent at room temperature overnight in a roller mixer. Samples of the resulting mixtures were then placed in a conventional oven at 180° C. for the time specified below (5 minutes and 132 minutes). The amount of antimicrobial agent in the sample, initially and after heating, was determined by HPLC. All samples were contained in dark bottles and covered with aluminum foil during heating.
# The samples were prepared and tested as described in Examples 1-5.
structure (smiles),measurement,setting,value
"CCCCNC(=O)OCC#CI [Example 2, 3-iodo-2-propynyl butyl carbamate]",% Biocide/ 5 min.,after 5 minutes in oven at 180° C.,83%
same,% Biocide/ 132 min.,after 132 minutes in oven at 180° C.,0%
same,% Initial Biocide,"before heating, by weight",100%
